Measurements published in patent US11447467B2, “Compounds for the degradation of STK4 and treatment of hematologic malignancies” (DANA-FARBER CANCER INSTITUTE, INC., priority 2017, dated 2022).

What was measured:
[1] = biological target: T1, STK4 (Homo sapiens, UniProt Q13043); assay: Western blotting of STK4 in whole cell lysates of MM.1S cells (parental or CRBN-knockout); format: cell-based; details: for degradation of STK4 in cereblon-knockout cells (FIG. 8): CRBN-K.O. vs parental MM.1S cells; for downregulation of STK4 in MM.1S cells (FIG. 7): 0.6-20 μM; for degradation of STK4 in the presence of MLN4924 (FIG. 9): compound 10 μM, NEDD8 inhibitor MLN4924 1 μM; for downregulation of STK4 over time (FIG. 3B): 10 μM; for downregulation of STK4 in MM.1S cells (FIG. 1): immunoblotting anti-STK4/anti-GAPDH
T1 construct: endogenous in cells; host or cells: MM.1S and CRBN-knockout MM.1S cells
T1 sequence (Q13043 1-487): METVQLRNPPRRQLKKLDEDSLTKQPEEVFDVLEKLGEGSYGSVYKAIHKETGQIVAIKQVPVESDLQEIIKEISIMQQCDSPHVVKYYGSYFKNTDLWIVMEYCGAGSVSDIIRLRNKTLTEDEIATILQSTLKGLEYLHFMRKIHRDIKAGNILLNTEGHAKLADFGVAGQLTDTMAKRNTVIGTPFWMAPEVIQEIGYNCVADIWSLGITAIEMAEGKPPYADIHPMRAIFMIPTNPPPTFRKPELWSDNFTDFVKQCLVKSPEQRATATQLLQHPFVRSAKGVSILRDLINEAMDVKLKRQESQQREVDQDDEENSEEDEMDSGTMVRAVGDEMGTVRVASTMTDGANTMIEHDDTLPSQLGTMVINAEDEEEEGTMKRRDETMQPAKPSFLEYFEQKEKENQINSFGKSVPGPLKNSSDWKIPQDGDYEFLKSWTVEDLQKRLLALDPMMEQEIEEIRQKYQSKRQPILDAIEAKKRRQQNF
Source text: MM.1S, KMS20 and H929 cells are counted, diluted and plated. Cells are then […] with DMSO or different concentration of a compound of the present application for 6 hrs, 24 hrs or 48 hrs. MM cells are then collected and centrifuged at RT and the pellets are re-suspended in lysis buffer. Cell lysates are subjected to sodium dodecyl sulfate-polyacrylamide gel electrophoresis SDS-PAGE, transferred to nitrocellulose membranes, and immunoblotted with different antibodies.
MM.1S and CRBN knockout MM.1S cells were counted, diluted and plated in six-well plates to a final concentration of 500,000 cells/well. Cells were then harvested with DMSO or different concentration of a compound of the present application (4 h-24 h). MM cells were then collected and centrifuged for 5 min, 1300 rpm at RT. The pellets were re-suspended in cell lysis buffer (20 mM Tris-HCl (pH 7.5), 150 mM NaCl, 1 mM Na2EDTA, 1 mM EGTA, 1% Triton, 2.5 mM sodium pyrophosphate, 1 mM beta-glycerophosphate, 1 mM Na3VO4, 1 μg/ml leupeptin. Cell lysates were subjected to sodium dodecyl sulfate-polyacrylamide gel electrophoresis SDS-PAGE, transferred to nitrocellulose membranes, and immunoblotted with different antibodies: MST1 (STK4) (#14946), K48-linkage Specific Polyubiquitin (#8081) and GAPDH (#5174) from Cell Signaling, Beverly, Mass., United States: IKZF1 (AF4984) (from R&D Systems, Mineapolis, Minn., United States). All antibodies were diluted 1:1000, except for GAPDH antibody (1:4,000 dilution).

[2] = system: MM.1S cells resistant to lenalidomide (Len-R #1); assay: MTT cell growth assay, lenalidomide-resistant MM.1S cells; format: cell-based, human; details: Len-R #1 MM.1S cells, 0.2-20 μM, 72 h
[3] = system: MM.1S cells; assay: MTT cell growth assay, MM.1S cells; format: cell-based, human; details: 72 h; for MM cell growth inhibition (FIG. 10): 0.2-20 μM; for potency in inhibiting MM cell growth as compared to lenalidomide (FIG. 15): comparator lenalidomide (Len)
Protocol: (§1) Dexamethasone-sensitive MM.1S human MM cell line were kindly provided by Dr. Steven Rosen (Northwestern University, Chicago, Ill., United States). Creblon stable knockout MM.1S cells were established in our laboratory using lentiviral CRBN shRNA system. The cell lines were routinely tested for Mycoplasma, and genotyped with two different methods. Peripheral blood mononuclear cells were obtained from healthy volunteer by Ficoll-Paque centriguation. All MM cell lines and PBMCs were cultured in RPMI-1640 media (EuroClone, Pero, Italy) containing 10% fetal bovine serum (FBS, GIBCO, Life technologies, Carlsbad, Calif., United States), and a mix of penicillin and streptomycin to 1% from EuroClone (ECB3001).
(§2) MM.1S and CRBN-knockout MM.1S cells were counted and diluted to a final concentration of 400,000 cells/mL. The cell were plated in 96-well plates and mixed with an equal volume of culture media containing DMSO or increasing concentration of a compound of the present application diluted in DMSO (the final DMSO concentration is equal between all tested samples), using a STARlet Robot (Hamiltonrobotics, Reno, Nev., United States). Cells with increasing concentration of compound of the present application and DMSO were harvested at different time points (24 hrs to 72 hrs). For assessment of celll growth MTT assay, the 3-[4,5 dimethylthiazol-2-yl]-2,5 diphenyltetrazolium bromide-MTT (Sigma-Aldrich, St. Louis, Mo., Unites States) colorimetric assay was used. At the various time points (24-72 hrs), 10 μL of 5 mg/mL MTT were added to cells. After 4 hrs incubation at 37° C., medium was discarded and 100 μL MTT stop solution (Isopropanol with 1 N HCl) was used to dissolve MTT metabolic products. Absorbance was read at 570/630 nm.

[4] = system: CRBN-knockout MM.1S cells; assay: MTT cell growth assay, CRBN-knockout MM.1S cells; format: cell-based, human; details: for cytotoxicity in CRBN-knockout cells (FIG. 11): 0.2-20 μM, 72 h; for cytotoxicity in CRBN-knockout cells (FIG. 5): parental or CRBN-knockout MM.1S cells, 24 h, 0.1-10 μM, MTT
Protocol: as §1, §2

[5] = system: Peripheral blood mononuclear cells (PBMCs) from healthy volunteer; assay: MTT cell growth assay, peripheral blood mononuclear cells; format: cell-based, human; details: PBMCs from healthy volunteer vs MM.1S cells, 48 h
Protocol: as §1
MM.1S and CRBN-knockout MM.1S cells were counted and diluted to a final concentration of 400,000 cells/mL. The cell were plated in 96-well plates and mixed with an equal volume of culture media containing DMSO or increasing concentration of a compound of the present application diluted in DMSO (the final DMSO concentration is equal between all tested samples), using a STARlet Robot (Hamiltonrobotics, Reno, Nev., United States). Cells with increasing concentration of compound of the present application and DMSO were harvested at different time points (24 hrs to 72 hrs). […] Absorbance was read at 570/630 nm.

[6] = MM.1S cells, 24 h, indicated concentrations

Compound	degradation of STK4 in cereblon-knockout cells (FIG. 8) ([1]; 24 h)	downregulation of STK4 in MM.1S cells (FIG. 7) ([1]; MM.1S cells, 24 h)	degradation of STK4 in the presence of MLN4924 (FIG. 9) ([1]; MM.1S cells, 24 h)	cytotoxicity in acquired lenalidomide-resistant cells (FIG. 12B) [2]	MM cell growth inhibition (FIG. 10) [3]	potency in inhibiting MM cell growth as compared to lenalidomide (FIG. 15) [3]	cytotoxicity in CRBN-knockout cells (FIG. 11) [4]	cytotoxicity to peripheral blood mononuclear cells (FIG. 13A/13B) [5]	downregulation of STK4 over time (FIG. 3B) ([1]; MM.1S cells, 4-24 h)	downregulation of STK4 in MM.1S cells (FIG. 1) [1, 6]	cytotoxicity in CRBN-knockout cells (FIG. 5) [4]	downregulation of STK4 over time (FIG. 3A) ([1]; MM.1S cells, 2.5 μM, 4-24 h)	downregulation of STK4 in MM.1S cells (FIG. 2) ([1]; MM.1S cells, 24 h, 0.15-5 μM, Western blotting)	degradation of STK4 in cereblon-knockout cells (FIG. 4) ([1]; cereblon (CRBN)-knockout vs parental MM.1S cells, 24 h, indicated concentrations)
Nc1ncc(-c2ccc(S(=O)(=O)Nc3ccc(NC(=O)CCOCCOCCOCCOCCOCCNc4cccc5c4C(=O)N(C4CCC(=O)NC4=O)C5=O)cc3)cc2F)cc1-c1ccc2c(c1)CCNC2=O (centres unmarked) [Compound I-7, N-(4-((4-(6-amino-5-(1-oxo-1,2,3,4-tetrahydroisoquinolin-6-yl)pyridin-3-yl)-3-fluorophenyl)sulfonamido)phenyl)-1-((2-(2,6-dioxopiperidin-3-yl)-1,3-dioxoisoindolin-4-yl)amino)-3,6,9,12,15-pentaoxaoctadecan-18-amide]	absence of degradation of STK4	dose dependent downregulation of STK4	absence of degradation of STK4	decrease in cytotoxicity	potent MM cell growth inhibition	greater potency	decrease in cytotoxicity	absence of cytotoxic	–	–	–	–	–	–
Nc1ncc(-c2ccc(S(=O)(=O)Nc3cccc(NC(=O)CCOCCOCCOCCOCCOCCNc4cccc5c4C(=O)N(C4CCC(=O)NC4=O)C5=O)c3)cc2F)cc1-c1ccc2c(c1)CCNC2=O (centres unmarked) [Compound I-10]	absence of degradation of STK4	dose dependent downregulation of STK4	absence of degradation of STK4	decrease in cytotoxicity	potent MM cell growth inhibition	greater potency	decrease in cytotoxicity	absence of cytotoxic	downregulation of STK4 by compounds of the application in a time-dependent fashion	dose dependent downregulation of STK4	decrease in cytotoxicity	–	–	–
Nc1ncc(-c2ccc(S(=O)(=O)Nc3cccc(NC(=O)CCOCCOCCOCCOCCOCCOc4cccc5c4C(=O)N(C4CCC(=O)NC4=O)C5=O)c3)cc2F)cc1-c1ccc2c(c1)CCNC2=O (centres unmarked) [Compound I-17]	–	–	–	–	–	–	–	–	downregulation of STK4 by compounds of the application in a time-dependent fashion	–	–	–	–	–
Nc1ncc(-c2ccc(S(=O)(=O)N(CCCNC(=O)CCOCCOCCOCCOCCOCCNc3cccc4c3C(=O)N(C3CCC(=O)NC3=O)C4=O)C3CC3)cc2F)cc1-c1ccc2c(c1)CCNC2=O (centres unmarked) [Compound I-19, N-(3-((4-(6-amino-5-(1-oxo-1,2,3,4-tetrahydroisoquinolin-6-yl)pyridin-3-yl)-N-cyclopropyl-3-fluorophenyl)sulfonamido)propyl)-1-((2-(2,6-dioxopiperidin-3-yl)-1,3-dioxoisoindolin-4-yl)amino)-3,6,9,12,15-pentaoxaoctadecan-18-amide]	–	–	–	–	–	–	–	–	–	dose dependent downregulation of STK4	decrease in cytotoxicity	downregulation of STK4 by compounds of the application in a time-dependent fashion	dose dependent downregulation of STK4	absence of degradation of STK4
Nc1ncc(-c2ccc(S(=O)(=O)NC3CCCN(C(=O)CCOCCOCCOCCOCCOCCNc4cccc5c4C(=O)N(C4CCC(=O)NC4=O)C5=O)C3)cc2F)cc1-c1ccc2c(c1)CCNC2=O (centres unmarked) [Compound I-20, 4-(6-amino-5-(1-oxo-1,2,3,4-tetrahydroisoquinolin-1-yl)pyridin-3-yl)-N-(1-(1-((2-(2,6-dioxopiperidin-3-yl)-1,3-dioxoisoindolin-4-yl)amino)-3,6,9,12,15-pentaoxaoctadecan-18-oyl)piperidin-3-yl)-3-fluorobenzenesulfonamide]	–	–	–	–	–	–	–	–	–	dose dependent downregulation of STK4	–	–	–	–
